Here are results for 17 compounds from ChEMBL document CHEMBL4152303, “Structure-activity relationships of imidazothiazinones and analogs as antagonists of the cannabinoid-activated orphan G protein-coupled receptor GPR18” (Eur J Med Chem, 2018).

Test [1] deals with T1, G-protein coupled receptor 55 (Homo sapiens, UniProt Q9Y2T6). As to the kind of experiment: Antagonist activity at recombinant human GPR55 expressed in CHO cells assessed as inhibition of lysophosphatidylinositol-induced beta-arrestin recruitment preincubated for 60 mins followed by lysophosphatidylinositol addition for 90 mins measured for 1 sec by luminescence assay. Type of test: functional, cell-based.

Test [2] deals with Cannabinoid receptor 1 (Homo sapiens, UniProt P21554). As to the kind of experiment: Displacement of [3H]CP55940 from recombinant human CB1 receptor expressed in CHO cell membranes after 2 hrs by liquid scintillation counting method. The settings on record: for inhibition: concentration not given here.
In test [3] the target is Cannabinoid receptor 2 (Homo sapiens, UniProt P34972). The test can be described thus: Displacement of [3H]CP55940 from recombinant human CB2 receptor expressed in CHO cell membranes after 2 hrs by liquid scintillation counting method. Conditions: for inhibition: concentration not given here.
Test [4] addresses T2, N-arachidonyl glycine receptor (Homo sapiens) (UniProt Q14330).
T2 sequence (whole entry): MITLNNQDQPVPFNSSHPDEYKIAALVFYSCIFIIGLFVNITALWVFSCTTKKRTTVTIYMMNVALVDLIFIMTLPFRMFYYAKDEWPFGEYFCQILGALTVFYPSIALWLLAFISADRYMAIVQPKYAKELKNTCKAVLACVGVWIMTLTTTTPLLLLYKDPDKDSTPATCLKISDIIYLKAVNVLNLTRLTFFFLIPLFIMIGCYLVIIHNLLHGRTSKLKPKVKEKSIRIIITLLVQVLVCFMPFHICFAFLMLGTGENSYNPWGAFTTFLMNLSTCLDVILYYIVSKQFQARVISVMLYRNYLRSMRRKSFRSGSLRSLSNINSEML
The test can be described thus: (§1) Antagonist activity at recombinant human GPR18 expressed in CHO cells assessed as inhibition of delta9-THC-induced beta-arrestin recruitment preincubated for 60 mins followed by delta9-THC addition for 90 mins measured for 1 sec by luminescence assay. Type of test: functional, cell-based.

In test [5] the target is T3, N-arachidonyl glycine receptor (Homo sapiens, UniProt Q14330).
T3 sequence (Q14330 whole entry): T2 sequence (whole entry)
The description is as §1. The class given is functional, cell-based.

Test [6] addresses T2, N-arachidonyl glycine receptor (Homo sapiens). As to the kind of experiment: (§2) Agonist activity at recombinant human GPR18 expressed in CHO cells assessed as increase in beta-arrestin recruitment incubated for 60 mins measured for 1 sec by luminescence assay. Type of test: functional, cell-based.
Test [7] has as its target T3, N-arachidonyl glycine receptor. Described as §2. Type of test: functional, cell-based.
Test [8] deals with T1, G-protein coupled receptor 55. The test can be described thus: Agonist activity at recombinant human GPR55 expressed in CHO cells assessed as increase in beta-arrestin recruitment incubated for 60 mins measured for 1 sec by luminescence assay. The class given is functional, cell-based.
The target in test [9] is T3, N-arachidonyl glycine receptor. As to the kind of experiment: Agonist activity at recombinant full length human GPR18 expressed in CHO cells assessed as forskolin-stimulated cAMP accumulation after 10 mins by enzyme immunoassay. Type of test: functional, cell-based.
Test [10] has the same target. As to the kind of experiment: Agonist activity at recombinant human GPR18 expressed in HEK293 cells assessed as induction of p44/42 MAPK phosphorylation after 5 mins by Western blot analysis. Type of test: functional, cell-based.
The target of test [11] is T2, N-arachidonyl glycine receptor (Homo sapiens). As to the kind of experiment: Competitive antagonist activity at recombinant human GPR18 expressed in CHO cells assessed as inhibition of delta9-THC-induced beta-arrestin recruitment preincubated for 60 mins followed by delta9-THC addition for 90 mins measured for 1 sec by luminescence assay. Type of test: functional, cell-based.

The structures appear in SMILES notation.

Cannabinoid receptor 2, sequence (P34972 whole entry): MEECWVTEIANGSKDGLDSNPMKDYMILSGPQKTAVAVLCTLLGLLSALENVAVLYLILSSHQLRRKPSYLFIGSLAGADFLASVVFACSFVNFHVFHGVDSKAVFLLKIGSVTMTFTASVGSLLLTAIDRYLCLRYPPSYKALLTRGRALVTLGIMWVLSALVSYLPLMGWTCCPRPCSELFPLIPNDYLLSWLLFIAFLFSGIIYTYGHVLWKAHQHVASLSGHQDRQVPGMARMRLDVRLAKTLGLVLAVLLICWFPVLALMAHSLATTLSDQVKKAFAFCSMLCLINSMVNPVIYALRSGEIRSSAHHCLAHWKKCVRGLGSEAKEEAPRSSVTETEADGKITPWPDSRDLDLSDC
T1 sequence (Q9Y2T6 whole entry): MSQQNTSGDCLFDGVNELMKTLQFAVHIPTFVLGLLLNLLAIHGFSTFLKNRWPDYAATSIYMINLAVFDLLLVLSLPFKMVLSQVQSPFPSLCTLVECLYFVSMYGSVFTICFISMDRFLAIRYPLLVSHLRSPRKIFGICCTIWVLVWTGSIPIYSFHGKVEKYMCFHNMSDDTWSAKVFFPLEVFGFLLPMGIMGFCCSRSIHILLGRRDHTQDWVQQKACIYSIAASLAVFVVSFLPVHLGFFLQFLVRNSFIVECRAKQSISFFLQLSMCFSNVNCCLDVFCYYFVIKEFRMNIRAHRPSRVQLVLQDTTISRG
Cannabinoid receptor 1, sequence (P21554 whole entry): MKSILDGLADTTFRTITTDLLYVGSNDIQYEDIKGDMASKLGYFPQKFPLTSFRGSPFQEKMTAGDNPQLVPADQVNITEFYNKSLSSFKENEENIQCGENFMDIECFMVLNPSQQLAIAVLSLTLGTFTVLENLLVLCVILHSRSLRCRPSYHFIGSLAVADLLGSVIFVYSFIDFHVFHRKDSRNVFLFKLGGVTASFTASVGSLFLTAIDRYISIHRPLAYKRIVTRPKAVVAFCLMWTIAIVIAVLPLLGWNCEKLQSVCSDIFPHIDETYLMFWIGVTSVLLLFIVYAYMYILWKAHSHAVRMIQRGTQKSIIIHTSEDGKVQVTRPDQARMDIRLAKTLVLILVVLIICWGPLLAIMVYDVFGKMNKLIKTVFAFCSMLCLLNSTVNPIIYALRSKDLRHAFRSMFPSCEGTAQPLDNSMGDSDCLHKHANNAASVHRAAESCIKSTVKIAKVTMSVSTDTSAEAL

For the compound `O=C1NC(SCc2ccccc2)=N/C1=C\c1cccc(OCc2ccc(Cl)cc2)c1`, the IC50 in test [1] and in [5] was > 10 µM in each case. In addition, the Imax worked out at 17% in test [1] and 3% in test [4]. Further, the Ki in test [2] and in [3] was > 10 µM in each case. The inhibition in test [2] amounted to 11%; in [3] it was 46%. Moreover, the %max in [6] was -17%; in test [8], 21%. Moreover, the EC50 in test [7] and in test [8] was > 10 µM in each case.
For the compound `Cc1ccc(COc2cccc(/C=C3\N=C4SCCCN4C3=O)c2)cc1`, the IC50 in test [1] is 9.45 µM; in test [5], 3.59 µM. Further, the Imax is 134% in [1] and 61% in [4]. The Ki in test [2] and in [3] was > 10 µM each time. Also, the inhibition was found to be 22% in test [2] and 25% in test [3]. The %max was 2% in test [6] and -31% in test [8]. The EC50 in [7] and in test [8] was > 10 µM throughout.
As to `O=C1NC(SCc2ccc(F)cc2)=N/C1=C\c1cccc(OCc2ccc(Cl)cc2)c1`, the IC50 in test [1] and in test [5] was > 10 µM each time. Further, the values for the Imax in test [1] and in [4] were 44% and 27%, respectively. For the same compound, the Ki in test [2] and in [3] was > 10 µM throughout. For the same compound, the inhibition was found to be 42% in test [2] and 19% in [3]. The %max in [6] is 23%; in test [8], -21%. Besides, the EC50 in test [7] and in test [8] was > 10 µM throughout.
`CCCCC/C=C\C/C=C\C/C=C\C/C=C\CCCC(=O)NCC(=O)O` [ARACHIDONOYL GLYCINE]: the EC50 was determined as 0.02 µM in [9] and 0.044 µM in test [10].
On to `O=C1/C(=C/c2cccc(OCCCCCCOc3ccccc3Cl)c2)N=C2SCCCN12`, for which the values for the IC50 in test [1] and in [5] were 3.41 µM and > 10 µM, respectively. Also, the Imax in [1] worked out at 79%; in test [4], 41%. Besides, the Ki in test [2] and in test [3] was > 10 µM throughout. Further, the inhibition in [2] came to 19%; in test [3], 29%. Further, the results for the %max in [6] and in [8] were 10% and 0%, respectively. In addition, the half-maximal effective concentration (EC50) in test [7] and in test [8] was > 10 µM throughout.
As to `Cc1ccc(CSC2=N/C(=C\c3cccc(OCc4ccc(Cl)cc4)c3)C(=O)N2C)cc1`, the IC50 in test [1] and in test [5] was > 10 µM each time. Also, the results for the Imax in [1] and in test [4] were 33% and 17%, respectively. Besides, the Ki in [2] and in [3] was > 10 µM throughout. In addition, the inhibition in test [2] worked out at 15%; in test [3], 25%. Also, the %max in [6] is 7%; in test [8] it was 20%. For the same compound, the EC50 in [7] and in [8] was > 10 µM in each case.
In the case of `CSC1=N/C(=C\c2cccc(OCc3ccc(Cl)cc3)c2)C(=O)N1C`, the IC50 in test [1] and in [5] was > 10 µM in each case. Also, the Imax amounted to 35% in [1] and 23% in test [4]. Also, the Ki in test [2] and in [3] was > 10 µM each time. The inhibition is 19% in test [2] and 24% in [3]. In addition, the %max in [6] and in test [8] was -2% throughout. Moreover, the EC50 in [7] and in test [8] was > 10 µM in each case.
For `O=C1NC(SCc2ccc(Cl)cc2)=N/C1=C\c1cccc(OCc2ccc(Cl)cc2)c1`, the IC50 in test [1] and in test [5] was > 10 µM throughout. Further, the Imax worked out at 41% in test [1] and 35% in [4]. For the same compound, the Ki in test [2] and in [3] was > 10 µM in each case. For the same compound, the inhibition in test [2] was found to be 36%; in test [3], 30%. Moreover, the %max in test [6] is 5%; in [8] it was -10%. The EC50 in [7] and in test [8] was > 10 µM each time.
Take `O=C1/C(=C/c2cccc(OCCCCCCOc3ccc(Cl)cc3)c2)N=C2SCCCN12`: in [11], the Kb worked out at 0.626 µM. In [11], the pKb came out at 6.2. For the same compound, the IC50 was > 10 µM in [1] and 0.65 µM in test [5]. The Imax turned out to be 37% in [1] and 122% in test [4]. For the same compound, the Ki in [2] and in test [3] was > 10 µM throughout. Besides, the inhibition in test [3] was found to be 12%. The results for the %max in test [6] and in test [8] were -37% and -15%, respectively. Further, the EC50 in [7] and in [8] was > 10 µM in each case.
In the case of `O=C1/C(=C/c2cccc(OCCCCOc3ccc(Cl)cc3)c2)N=C2SCCCN12`, the IC50 in test [1] was > 10 µM; in test [5], 2.38 µM. Moreover, the Imax in test [1] turned out to be 26%; in test [4], 116%. Moreover, the Ki in test [2] and in test [3] was > 10 µM each time. The inhibition in test [3] was determined as 3%. Moreover, the %max in [6] is -16%; in test [8] it was 11%. The EC50 in test [7] and in [8] was > 10 µM in each case.
As to `O=C1NC(=S)S/C1=C\c1cccc(OCc2ccc(Cl)cc2)c1`, the IC50 in test [1] and in test [5] was > 10 µM throughout. Further, the Imax in [1] was -18%; in test [4], 22%. Further, the Ki in test [2] and in test [3] was > 10 µM throughout. Further, the inhibition in test [2] was determined as 47%; in [3], 26%. Besides, the %max in test [6] was -38%; in [8], 29%. Also, the EC50 in [7] and in test [8] was > 10 µM each time.
As for `O=C1/C(=C/c2cccc(OCCCOc3ccc(Cl)cc3)c2)N=C2SCCCN12`, the values for the IC50 in test [1] and in test [5] were > 10 µM and 3.25 µM, respectively. Further, the Imax worked out at 38% in test [1] and 113% in test [4]. Besides, the Ki in test [2] and in test [3] was > 10 µM each time. The inhibition in [2] was 18%; in test [3], -2%. The %max is -16% in test [6] and -36% in [8]. The EC50 in test [7] and in [8] was > 10 µM throughout.
As to `O=C1NC(SCc2ccc(Br)cc2)=N/C1=C\c1cccc(OCc2ccc(Cl)cc2)c1`, the IC50 in test [1] was > 10 µM; in [5] it was 2.29 µM. Moreover, the Imax worked out at 36% in test [1] and 44% in [4]. Further, the Ki in test [2] and in test [3] was > 10 µM each time. Also, the inhibition is 31% in [2] and 36% in test [3]. For the same compound, the %max was -11% in test [6] and 13% in test [8]. In addition, the EC50 in [7] and in test [8] was > 10 µM throughout.
Regarding `O=C1/C(=C/c2cccc(OCc3ccc(Cl)cc3)c2)N=C2SCCN12`, the IC50 in test [1] and in test [5] was > 10 µM throughout. Further, the Imax in test [1] was 42%; in test [4], 40%. For the same compound, the Ki in test [2] and in test [3] was > 10 µM each time. For the same compound, the inhibition was found to be 18% in [2] and 28% in [3]. Moreover, the %max is 1% in test [6] and -3% in test [8]. Besides, the EC50 in test [7] and in [8] was > 10 µM in each case.
As to `O=C1/C(=C/c2cccc(OCCOc3ccc(Cl)cc3)c2)N=C2SCCCN12`, the concentration for half-maximal inhibition (IC50) is 10.1 µM in test [1] and 5 µM in test [5]. Besides, the figures for the Imax in test [1] and in test [4] were 99% and 123%, respectively. Further, the Ki in test [2] and in test [3] was > 10 µM throughout. Further, the inhibition in test [2] is 21%; in test [3] it was -9%. The %max was -10% in [6] and -20% in [8]. Further, the EC50 in test [7] and in [8] was > 10 µM each time.
With `O=C1/C(=C/c2cccc(OCc3ccc(F)cc3)c2)N=C2SCCCN12`, the IC50 in test [1] was 4.22 µM; in test [5] it was > 10 µM. Also, the Imax in test [1] was determined as 149%; in test [4], 3%. Further, the Ki in test [2] and in test [3] was > 10 µM each time. In addition, the results for the inhibition in [2] and in test [3] were 35% and 46%, respectively. The %max is 6% in test [6] and -30% in test [8]. The EC50 in test [7] and in test [8] was > 10 µM in each case.
For the compound `CSC1=NC(=O)/C(=C/c2cccc(OCc3ccc(Cl)cc3)c2)N1`, the IC50 in [1] was > 10 µM; in [5], 13.8 µM. Moreover, the Imax in test [1] came out at 47%; in [3], 73%; in test [4] it was 71%. Besides, the Ki in test [2] was found to be 2.21 µM; in test [3] it was 0.591 µM. Besides, the %max in test [6] was found to be 31%; in test [8] it was 18%. Besides, the EC50 in test [7] and in [8] was > 10 µM throughout.
